Reference: patent US20110282056A1, “PROTEIN KINASE INHIBITORS AND USE THEREOF” (priority 2008, published 2011)

Key:
Type in all cases: biochemical
VEGFR3 = biological target: T1, VEGFR3 (Homo sapiens, UniProt P35916); experiment: VEGFR3 enzyme activity assay (Caliper LC3000 mobility shift); details: 400 uM ATP (Km), 0.4 nM VEGFR3, 90 minutes at RT
T1 construct: purchased Millpore Corp. (Millipore) 14-681
Protocol: (§1) Enzyme activity for VEGFR3, VEGFR2 and Flt3 were measured on the Caliper Life Sciences LC3000 (Hopkinton, Mass.). The system utilizes the principle of electroosmotic flow to separate and quantify the amount of phosphorylated-Fluorescein-labelled-peptide (product) from unphosphorylated-Fluorescein-labelled peptide (substrate). The amount of product and substrate are determined by measuring the peak heights from the electropherogram. The enzyme activity is then quantified by dividing the amount of product by the sum of the product and substrate. The inhibitory activity of a sample is measured by comparing the enzyme activity in the presence of sample versus the enzyme activity in the presence of dimethylsufoxide (DMSO). Specific assay conditions for each enzyme are listed below:
(§2) VEGFR3 assay: The peptide substrate at 1 uM (FITC-KKKKEEIYFFF-CONH2; synthesized at Tufts University, Boston, Mass.) was incubated with 400 uM of ATP, corresponding to the Michaelis-Menten (Km) constant of the enzyme/substrate reaction, and 0.4 nM of VEGFR3 (Millpore Corp., Cat. No. 14-681) for 90 minutes at RT. After 90 minutes, the reaction was stopped by the addition of 10 mM EDTA. The substrate and product were then separated on the LC3000.

VEGFR2 = biological target: T2, VEGFR2 (Homo sapiens, UniProt P35968); experiment: VEGFR2 enzyme activity assay (Caliper LC3000 mobility shift); details: 160 uM ATP (Km), 1 nM VEGFR2, 90 minutes at RT
T2 construct: purchased BPS Bioscience; San Diego, Calif; 40301
Protocol: as §1
as §2, with “VEGFR2” for “VEGFR3”, “(5-FL-EEPLYWSFPAKKK-CONH2;” for “(FITC-KKKKEEIYFFF-CONH2;”, “160” for “400”, “1” for “0.4”, “VEGFR2 (BPS Bioscience; San Diego, Calif.;” for “VEGFR3 (Millpore Corp.,”, “40301)” for “14-681)”

Flt3 = biological target: T3, Flt3 (Homo sapiens, UniProt P36888); experiment: Flt3 enzyme activity assay (Caliper LC3000 mobility shift); details: 350 uM ATP (Km), 3 nM Flt3, 90 minutes at RT
T3 construct: purchased BPS Bioscience; San Diego, Calif; 40225
T3 sequence (P36888 27-993): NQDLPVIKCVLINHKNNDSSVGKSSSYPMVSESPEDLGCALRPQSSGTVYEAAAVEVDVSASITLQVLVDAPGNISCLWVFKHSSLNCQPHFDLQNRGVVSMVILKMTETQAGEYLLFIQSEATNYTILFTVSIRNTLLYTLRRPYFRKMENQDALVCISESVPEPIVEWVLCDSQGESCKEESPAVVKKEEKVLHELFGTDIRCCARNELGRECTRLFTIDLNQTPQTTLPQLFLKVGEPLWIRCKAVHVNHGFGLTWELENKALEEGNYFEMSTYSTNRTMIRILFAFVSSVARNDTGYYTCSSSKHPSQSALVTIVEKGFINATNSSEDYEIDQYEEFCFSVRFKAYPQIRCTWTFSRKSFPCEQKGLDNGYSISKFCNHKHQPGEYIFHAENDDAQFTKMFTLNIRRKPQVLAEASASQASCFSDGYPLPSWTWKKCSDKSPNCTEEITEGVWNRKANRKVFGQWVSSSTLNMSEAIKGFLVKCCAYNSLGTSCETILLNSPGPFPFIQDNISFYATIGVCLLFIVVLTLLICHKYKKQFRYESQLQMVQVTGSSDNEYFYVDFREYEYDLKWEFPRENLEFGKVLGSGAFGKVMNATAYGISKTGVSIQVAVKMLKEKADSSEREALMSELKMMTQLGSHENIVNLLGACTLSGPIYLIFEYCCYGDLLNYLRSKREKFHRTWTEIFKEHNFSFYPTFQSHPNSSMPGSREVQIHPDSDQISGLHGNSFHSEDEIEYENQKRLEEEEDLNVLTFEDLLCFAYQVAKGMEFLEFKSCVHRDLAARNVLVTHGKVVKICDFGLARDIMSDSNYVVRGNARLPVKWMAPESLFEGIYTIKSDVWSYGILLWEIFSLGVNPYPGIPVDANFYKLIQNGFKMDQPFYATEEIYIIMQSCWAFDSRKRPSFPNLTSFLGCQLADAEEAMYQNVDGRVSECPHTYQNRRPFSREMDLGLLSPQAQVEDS
Protocol: as §1
as §2, with “Flt3” for “VEGFR3”, “(FITC-AHA-UEAIYAAPFAKKK-CONH2;” for “(FITC-KKKKEEIYFFF-CONH2;”, “350” for “400”, “3” for “0.4”, “Flt3 (BPS Bioscience; San Diego, Calif.;” for “VEGFR3 (Millpore Corp.,”, “40225)” for “14-681)”

T2 sequence (P35968 20-1356): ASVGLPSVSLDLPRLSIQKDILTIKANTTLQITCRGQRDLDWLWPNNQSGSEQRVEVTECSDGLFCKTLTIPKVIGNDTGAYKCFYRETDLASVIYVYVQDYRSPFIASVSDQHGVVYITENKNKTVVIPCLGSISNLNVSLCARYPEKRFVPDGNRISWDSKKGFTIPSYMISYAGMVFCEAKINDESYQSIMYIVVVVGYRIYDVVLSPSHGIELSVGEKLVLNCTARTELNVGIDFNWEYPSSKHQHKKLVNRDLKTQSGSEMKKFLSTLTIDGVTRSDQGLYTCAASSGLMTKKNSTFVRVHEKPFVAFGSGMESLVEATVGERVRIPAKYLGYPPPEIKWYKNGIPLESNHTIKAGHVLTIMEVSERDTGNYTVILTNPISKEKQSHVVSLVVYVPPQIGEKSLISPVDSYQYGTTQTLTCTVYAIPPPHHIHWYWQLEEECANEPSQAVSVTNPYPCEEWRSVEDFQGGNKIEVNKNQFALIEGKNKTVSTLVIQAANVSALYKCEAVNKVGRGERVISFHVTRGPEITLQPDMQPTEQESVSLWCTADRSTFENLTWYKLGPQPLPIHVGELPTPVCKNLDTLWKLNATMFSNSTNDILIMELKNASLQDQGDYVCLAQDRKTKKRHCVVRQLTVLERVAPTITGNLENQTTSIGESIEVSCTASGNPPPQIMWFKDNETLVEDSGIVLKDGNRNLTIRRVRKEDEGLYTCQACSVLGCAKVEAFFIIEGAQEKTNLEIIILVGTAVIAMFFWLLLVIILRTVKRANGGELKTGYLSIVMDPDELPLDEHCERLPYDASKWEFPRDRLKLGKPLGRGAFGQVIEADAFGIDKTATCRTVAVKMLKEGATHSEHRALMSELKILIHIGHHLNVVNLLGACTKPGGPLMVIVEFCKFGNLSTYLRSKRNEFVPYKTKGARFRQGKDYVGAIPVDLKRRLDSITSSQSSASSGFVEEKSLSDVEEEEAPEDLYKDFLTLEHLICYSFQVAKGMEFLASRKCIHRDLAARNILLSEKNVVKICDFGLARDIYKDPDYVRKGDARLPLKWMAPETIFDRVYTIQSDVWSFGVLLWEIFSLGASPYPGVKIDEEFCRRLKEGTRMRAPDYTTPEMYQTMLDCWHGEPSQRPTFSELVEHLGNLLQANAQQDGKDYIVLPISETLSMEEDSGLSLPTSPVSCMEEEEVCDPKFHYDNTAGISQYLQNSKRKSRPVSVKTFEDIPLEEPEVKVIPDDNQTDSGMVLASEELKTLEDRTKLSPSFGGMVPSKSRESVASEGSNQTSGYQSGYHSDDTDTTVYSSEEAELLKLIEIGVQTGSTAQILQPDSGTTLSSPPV
T1 sequence (P35916 25-1363): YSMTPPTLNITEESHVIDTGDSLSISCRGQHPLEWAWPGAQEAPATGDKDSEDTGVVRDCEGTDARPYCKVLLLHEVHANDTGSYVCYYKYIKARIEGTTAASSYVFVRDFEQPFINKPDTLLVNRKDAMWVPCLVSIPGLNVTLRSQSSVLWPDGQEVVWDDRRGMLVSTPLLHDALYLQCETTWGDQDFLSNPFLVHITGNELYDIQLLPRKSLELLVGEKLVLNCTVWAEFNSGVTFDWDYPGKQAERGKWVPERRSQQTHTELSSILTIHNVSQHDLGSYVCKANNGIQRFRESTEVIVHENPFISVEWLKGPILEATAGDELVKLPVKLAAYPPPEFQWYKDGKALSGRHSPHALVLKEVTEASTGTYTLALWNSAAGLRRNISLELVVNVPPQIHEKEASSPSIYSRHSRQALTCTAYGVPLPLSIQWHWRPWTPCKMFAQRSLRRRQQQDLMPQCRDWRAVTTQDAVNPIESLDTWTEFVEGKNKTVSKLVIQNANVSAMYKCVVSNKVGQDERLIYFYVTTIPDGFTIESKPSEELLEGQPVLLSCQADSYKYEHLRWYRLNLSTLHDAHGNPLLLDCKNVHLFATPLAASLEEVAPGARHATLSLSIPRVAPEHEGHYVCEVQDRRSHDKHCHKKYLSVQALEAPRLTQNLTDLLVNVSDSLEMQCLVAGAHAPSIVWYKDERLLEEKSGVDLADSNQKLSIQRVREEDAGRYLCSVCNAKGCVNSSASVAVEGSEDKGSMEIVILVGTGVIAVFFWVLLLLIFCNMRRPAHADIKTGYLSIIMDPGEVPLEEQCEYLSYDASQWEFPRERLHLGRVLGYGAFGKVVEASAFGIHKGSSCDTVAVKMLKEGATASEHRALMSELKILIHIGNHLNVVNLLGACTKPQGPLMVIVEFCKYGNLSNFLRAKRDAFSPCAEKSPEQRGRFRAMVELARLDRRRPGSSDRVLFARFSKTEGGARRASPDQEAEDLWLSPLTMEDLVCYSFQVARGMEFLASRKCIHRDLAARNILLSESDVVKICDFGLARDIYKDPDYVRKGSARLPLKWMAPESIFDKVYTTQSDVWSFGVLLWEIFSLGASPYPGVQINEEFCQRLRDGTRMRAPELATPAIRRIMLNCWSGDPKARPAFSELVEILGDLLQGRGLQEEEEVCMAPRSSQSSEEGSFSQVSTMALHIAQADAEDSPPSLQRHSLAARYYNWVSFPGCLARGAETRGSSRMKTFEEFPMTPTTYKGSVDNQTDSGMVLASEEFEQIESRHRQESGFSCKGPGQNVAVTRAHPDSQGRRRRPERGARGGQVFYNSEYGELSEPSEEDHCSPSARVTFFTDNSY

Structure (SMILES) | IC50 (VEGFR3) [nM] | IC50 (VEGFR2) [nM] | IC50 (Flt3) [nM]
COC(=O)c1ccccc1C#Cc1ccnc2[nH]ccc12 [compound 43] | 100 to 1000 | > 1000 | 100 to 1000
C(#Cc1ccnc2[nH]ccc12)c1ccoc1 [compound 44] | 100 to 1000 | > 1000 | > 1000
CC(=O)Nc1ccccc1C#Cc1ccnc2[nH]ccc12 [compound 45] | 100 to 1000 | > 1000 | > 1000
COc1cncc(C#Cc2ccnc3[nH]ccc23)c1 [compound 46] | 100 to 1000 | 100 to 1000 | 100 to 1000
C(#Cc1ccnc2[nH]ccc12)c1cccc(N2CCOCC2)c1 [compound 47] | 100 to 1000 | > 1000 | > 1000
FC(F)(F)c1ccccc1C#Cc1ccnc2[nH]ccc12 [compound 48] | 100 to 1000 | > 1000 | > 1000
COc1ccc(F)cc1C#Cc1ccnc2[nH]ccc12 [compound 49] | 100 to 1000 | > 1000 | > 1000
CC(=O)c1cccc(C#Cc2ccnc3[nH]ccc23)c1 [compound 50] | 100 to 1000 | > 1000 | 100 to 1000
COc1cccc(C#Cc2ccnc3[nH]ccc23)c1 [compound 51] | 100 to 1000 | > 1000 | 100 to 1000
COc1ccccc1C#Cc1ccnc2[nH]ccc12 [compound 52] | 100 to 1000 | > 1000 | > 1000
C(#Cc1ccnc2[nH]ccc12)c1cccc(-c2cc[nH]n2)c1 [compound 53] | 100 to 1000 | > 1000 | > 1000
CCNC(=O)/C=C/c1cccc(C#Cc2ccnc3[nH]ccc23)c1 [compound 54] | 100 to 1000 | > 1000 | > 1000
COC(=O)c1cccc(C#Cc2ccnc3[nH]ccc23)c1 [compound 55] | 100 to 1000 | > 1000 | > 1000
O=C(NCc1ccccc1C#Cc1ccnc2[nH]ccc12)C(F)(F)F [compound 56] | 100 to 1000 | > 1000 | > 1000
Cc1ccncc1C#Cc1ccnc2[nH]ccc12 [compound 57] | 100 to 1000 | 100 to 1000 | 100 to 1000
C(#Cc1ccnc2[nH]ccc12)c1ccccc1-n1cccc1 [compound 58] | 100 to 1000 | > 1000 | > 1000
Fc1cccc(C#Cc2ccnc3[nH]ccc23)c1 [compound 59] | 100 to 1000 | > 1000 | > 1000
C(#Cc1ccnc2[nH]ccc12)c1cccc2[nH]ccc12 [compound 60] | 100 to 1000 | > 1000 | > 1000
N#CCc1ccc(C#Cc2ccnc3[nH]ccc23)cc1 [compound 61] | 100 to 1000 | > 1000 | 100 to 1000
Cc1cccc(C#Cc2ccnc3[nH]ccc23)c1 [compound 62] | 100 to 1000 | > 1000 | > 1000
COc1cccc(C#Cc2ccnc3[nH]ccc23)n1 [compound 63] | 100 to 1000 | > 1000 | > 1000
CCc1ccccc1C#Cc1ccnc2[nH]ccc12 [compound 64] | 100 to 1000 | > 1000 | > 1000
C=Cc1cccc(C#Cc2ccnc3[nH]ccc23)c1 [compound 65] | 100 to 1000 | > 1000 | > 1000

Structure (SMILES) | IC50 (VEGFR3) [nM] | IC50 (VEGFR2) [nM] | IC50 (Flt3) [nM]
Cn1cncc1C#Cc1ccnc2[nH]ccc12 [compound 66] | 100 to 1000 | 100 to 1000 | 100 to 1000
CC(=O)Nc1ccc(C#Cc2ccnc3[nH]ccc23)cc1 [compound 67] | 100 to 1000 | > 1000 | > 1000
Cc1ccnc(C#Cc2ccnc3[nH]ccc23)c1 [compound 68] | 100 to 1000 | > 1000 | > 1000
Cc1ccccc1C#Cc1ccnc2[nH]ccc12 [compound 69] | 100 to 1000 | > 1000 | > 1000
Cc1ccc(C#Cc2ccnc3[nH]ccc23)cc1 [compound 70] | 100 to 1000 | > 1000 | > 1000
Nc1cccc(C#Cc2cnc3[nH]ccc3c2)c1 [compound 71] | 100 to 1000 | > 1000 | > 1000
C(#Cc1ccnc2[nH]ccc12)c1ccc2c(c1)OCO2 [compound 72] | 100 to 1000 | > 1000 | > 1000
COc1ccc(OC)c(C#Cc2ccnc3[nH]ccc23)c1 [compound 73] | 100 to 1000 | > 1000 | > 1000
COc1cc(C#Cc2ccnc3[nH]ccc23)cc(OC)c1 [compound 74] | > 1000 | > 1000 | > 1000
COc1ccc(CNC(=O)Cc2ccccc2C#Cc2ccnc3[nH]ccc23)cc1 [compound 75] | > 1000 | > 1000 | > 1000
Cc1cccc(C#Cc2ccnc3[nH]ccc23)n1 [compound 76] | > 1000 | > 1000 | > 1000
Cc1cc(C)cc(C#Cc2ccnc3[nH]ccc23)c1 [compound 77] | > 1000 | > 1000 | > 1000
FC(F)(F)Oc1ccccc1C#Cc1ccnc2[nH]ccc12 [compound 78] | > 1000 | > 1000 | > 1000
Nc1ccc(C#Cc2cnc3[nH]ccc3c2)cc1 [compound 79] | > 1000 | > 1000 | 100 to 1000
Fc1ccc(C#Cc2ccnc3[nH]ccc23)cc1 [compound 80] | > 1000 | > 1000 | > 1000
CS(=O)(=O)c1ccc(C#Cc2ccnc3[nH]ccc23)cc1 [compound 81] | > 1000 | > 1000 | > 1000
C(#Cc1ccnc2[nH]ccc12)c1cccnc1 [compound 82] | > 1000 | > 1000 | > 1000
C(#Cc1ccnc2[nH]ccc12)c1cncnc1 [compound 83] | > 1000 | > 1000 | > 1000
COc1cccnc1C#Cc1ccnc2[nH]ccc12 [compound 84] | > 1000 | > 1000 | > 1000
COc1ccc(C#Cc2ccnc3[nH]ccc23)cc1OC [compound 85] | > 1000 | > 1000 | > 1000
C(#Cc1ccnc2[nH]ccc12)c1ccccn1 [compound 86] | > 1000 | > 1000 | > 1000
C(#Cc1ccnc2[nH]ccc12)c1ccncc1 [compound 87] | > 1000 | > 1000 | > 1000
C(#Cc1ccnc2[nH]ccc12)c1ccc2cc[nH]c2c1 [compound 88] | > 1000 | > 1000 | > 1000
